Assay results: article PMC4491109, “Synthesis and anticonvulsant activity of new N-phenyl-2-(4-phenylpiperazin-1-yl)acetamide derivatives” (Medicinal Chemistry Research, 2015)
Like-named read-outs stand apart in the source and are kept apart here.

Tests used:
Assay type in all cases: in vivo
[1] = system: maximal electroshock (MES) seizures; experiment: Maximal electroshock (MES) test, i.p. administration in mice; conditions: Mus musculus, ip, doses of 30, 100 or 300 mg/kg
Experimental: (§1) Considering the aforementioned facts, the profile of anticonvulsant activity of final compounds 3–24 was established in the MES and scPTZ tests, after intraperitoneal (i.p.) injection in mice at doses of 30, 100 and 300 mg/kg. An observation was carried out at two different time intervals—0.5 and 4 h. Furthermore, in addition to the primary anticonvulsant screening, the acute neurological toxicity (NT) was determined in mice by the rotarod test.
(§2) Compounds 3–24 were pharmacologically preevaluated within the Antiepileptic Drug Development (ADD) Program in Epilepsy Branch, Neurological Disorders Program, National Institute of the Neurological and Communicative Disorders and Stroke (NIH/NINDS), Rockville, MD, USA, by using procedures described elsewhere (Krall et al., [1978]; Kupferberg, [1989]).
(§3) Phase I of the in vivo studies involved three tests: MES, scPTZ and rotarod test for NT. Male albino mice (CF#1 strain, weighing 18–25 g) and male albino rats (Sprague–Dawley) were used as experimental animals. The animals were housed in metabolic cages and allowed free access to food and water. The compounds were injected intraperitoneally to mice as a suspension in 0.5 % methylcellulose/water mixture at a dose level 30, 100 or 300 mg/kg with anticonvulsant activity and neurotoxicity assessment at 0.5 and 4 h after administration. Promising derivatives from phase I underwent phase VIa in which they were administrated orally into rats at a fixed dose of 30 mg/kg for both MES and the rotarod toxicity determination at five pretreatment times: 0.25, 0.5, 1, 2, 4 h. Groups of eight mice or four rats are employed.
In the MES screen, an electrical stimulus of 0.2 s in duration (50 mA in mice and 150 mA in rats) is delivered via corneal electrodes primed with an electrolyte solution containing an anesthetic agent. The endpoint is the tonic extension of the hind limbs. In the control groups, the procedures cause immediate hind limb tonic extension. Mice not displaying hind limb tonic extension are considered to be protected from seizures.

[2] = system: pentylenetetrazole-induced seizures; experiment: Subcutaneous pentylenetetrazole (scPTZ) test, i.p. administration in mice; conditions: Mus musculus, ip, doses of 30, 100 or 300 mg/kg
Experimental: as §1, §2, §3
The scPTZ test utilizes a dose of pentylenetetrazole (85 mg/kg in mice) that produces clonic seizures lasting for a period of at least 5 s in 97 % (CD97) of animals tested. PTZ is administered 0.5 and 4 h after injections of tested compounds, and observation is carried out for 30 min. In the control groups, the first episode of clonic convulsions is observed between 6 and 15 min of observation. The absence of clonic convulsions in the observed time period of […] is interpreted as the compound’s ability to protect against PTZ-induced seizures.

[3] = system: 6-Hz psychomotor seizures; experiment: Psychomotor seizure test (6-Hz), i.p. in mice; conditions: 100 mg/kg
Description: In the next step of pharmacological investigations, four compounds 12, 19, 20 and 24 were chosen for the evaluation of anticonvulsant activity in the psychomotor 6-Hz test (Table 4). The selection was made randomly as a part of the search of molecules providing anti-6-Hz protection among chemically diversified compounds pursued in the NIH/NINDS. It should be noticed that 6-Hz screen has been validated as a model of therapy-resistant epilepsy (Barton et al., [2001]).
The 6-Hz model is an alternative electroshock paradigm that uses low-frequency (6 Hz), long-duration (3 s) electrical stimulation. Corneal stimulation (0.2 ms duration monopolar rectangular pulses at 6-Hz for 3 s) was delivered by a constant-current device. During the stimulation, mice were manually restrained and released into the observation cage immediately after the current application. The seizures manifest in “stunned” posture associated with rearing, forelimb, automatic movements and clonus, twitching the vibrissae and Straub–tail. The duration of the seizure activity ranges from 60 to 120 s in untreated animals. At the end of the seizure, animals resume their normal exploratory behavior. The experimental end point is protection against the seizure. The animal is considered to be protected if it resumes its normal exploratory behavior within 10 s from the stimulation (Brown et al., [1953]).

mice (rotarod test) = experiment: Neurotoxicity screening (NT), rotarod test, i.p. administration in mice; conditions: for dose showing neurotoxicity in the rotarod test (NT): ip
Experimental: as §1, §3
The neurological toxicity test (NT) induced by a compound was detected in mice or rats using standardized rotarod test (Dunham and Miya, [1957]). Untreated control mice or rats, when placed on the rod, can maintained their equilibrium for a prolonged time period.

[4] = 0.5 h, read-out: MES, minimum dose effective in half or more animals tested, 0.5 h
[5] = 4 h, read-out: MES, minimum dose effective in half or more animals tested, 4 h
[6] = 0.5 h, read-out: scPTZ, minimum dose effective in half or more animals tested, 0.5 h
[7] = 4 h, read-out: scPTZ, minimum dose effective in half or more animals tested, 4 h

SMILES | minimal effective dose [1, 4] [mg/kg] | minimal effective dose [1, 5] [mg/kg] | minimal effective dose [2, 6] [mg/kg] | minimal effective dose [2, 7] [mg/kg] | other results
Cl.O=C(CN1CCN(c2ccccc2Cl)CC1)Nc1cccc(Cl)c1 [Compound 4, N-(3-chlorophenyl)-2-[4-(2-chlorophenyl)piperazin-1-yl]acetamide monohydrochloride] | > 300 | > 300 | > 300 | > 300 | –
Cl.O=C(CN1CCN(c2ccccc2)CC1)Nc1cccc(Cl)c1 [Compound 3, N-(3-chlorophenyl)-2-(4-phenylpiperazin-1-yl)acetamide monohydrochloride] | > 300 | > 300 | > 300 | > 300 | –
CN1CCN(CC(=O)Nc2cccc(Cl)c2)CC1.Cl.Cl [Compound 12, N-(3-chlorophenyl)-2-(4-methylpiperazin-1-yl)acetamide dihydrochloride] | 100 | > 300 | > 300 | > 300 | 6-Hz, % of animals protected, 0.25 h ([3]; 0.25 h): 75%; 6-Hz, % of animals protected, 0.5 h ([3]; 0.5 h): 75%; 6-Hz, number of mice protected/number of mice tested, 0.25 h ([3]; current 32 mA, 0.25 h): 3/4; 6-Hz, number of mice protected/number of mice tested, 0.5 h ([3]; current 32 mA, 0.5 h): 3/4; 6-Hz, number of mice protected/number of mice tested, 1 h ([3]; current 32 mA, 1 h): 0/4; 6-Hz, number of mice protected/number of mice tested, 2 h ([3]; current 32 mA, 2 h): 0/4; 6-Hz, number of mice protected/number of mice tested, 4 h ([3]; current 32 mA, 4 h): 0/4
O=C(CN1CCN(c2cccc(Cl)c2Cl)CC1)Nc1cccc(C(F)(F)F)c1 [Compound 17, 2-[4-(2,3-Dichlorophenyl)piperazin-1-yl]-N-[3-(trifluoromethyl)phenyl]acetamide] | > 300 | > 300 | > 300 | > 300 | –
Cl.O=C(CN1CCN(c2ccccc2F)CC1)Nc1cccc(C(F)(F)F)c1 [Compound 18, 2-[4-(2-Fluorophenyl)piperazin-1-yl]-N-[3-(trifluoromethyl)phenyl]acetamide monohydrochloride] | > 300 | 100 | > 300 | > 300 | –
Cl.O=C(CN1CCN(c2cccc(C(F)(F)F)c2)CC1)Nc1cccc(Cl)c1 [Compound 9, N-(3-chlorophenyl)-2-[4-[3-(trifluoromethyl)phenyl]piperazin-1-yl]acetamide monohydrochloride] | > 300 | > 300 | > 300 | > 300 | –
Cl.O=C(CN1CCN(c2cccc(Cl)c2Cl)CC1)Nc1cccc(Cl)c1 [Compound 6, N-(3-chlorophenyl)-2-[4-(2,3-dichlorophenyl)piperazin-1-yl]acetamide monohydrochloride] | > 300 | > 300 | > 300 | > 300 | –
Cl.O=C(CN1CCN(c2ccc(Cl)cc2)CC1)Nc1cccc(Cl)c1 [Compound 5, N-(3-chlorophenyl)-2-[4-(4-chlorophenyl)piperazin-1-yl]acetamide monohydrochloride] | > 300 | > 300 | > 300 | > 300 | –
Cl.Cl.O=C(CN1CCN(CCO)CC1)Nc1cccc(C(F)(F)F)c1 [Compound 23, 2-[4-(2-Hydroxyethyl)piperazin-1-yl]-N-[3-(trifluoromethyl)phenyl]acetamide dihydrochloride] | 300 | 300 | > 300 | > 300 | NT (rotarod), minimum dose neurotoxic in half or more animals tested, 0.5 h (mice (rotarod test); male, CF#1, mouse, in vivo): 300 mg/kg
O=C(CN1CCN(c2ccccc2)CC1)Nc1cccc(C(F)(F)F)c1 [Compound 14, 2-(4-Phenylpiperazin-1-yl)-N-[3-(trifluoromethyl)phenyl]acetamide] | > 300 | 100 | > 300 | > 300 | NT (rotarod), minimum dose neurotoxic in half or more animals tested, 0.5 h (mice (rotarod test); male, CF#1, mouse, in vivo): 300^Z mg/kg; NT (rotarod), minimum dose neurotoxic in half or more animals tested, 4 h (mice (rotarod test); male, CF#1, mouse, in vivo, 4 h): 300 mg/kg; dose showing neurotoxicity in the rotarod test (NT) (mice (rotarod test); male, CF#1, mouse, in vivo): 300 mg/kg; response comment (adverse sign observed) (mice (rotarod test); mice, i.p., 300 mg/kg): respiratory depression
Cl.O=C(CN1CCN(c2ncccn2)CC1)Nc1cccc(C(F)(F)F)c1 [Compound 21, 2-(4-Pyrimidin-2-ylpiperazin-1-yl)-N-[3-(trifluoromethyl)phenyl]acetamide monohydrochloride] | > 300 | > 300 | > 300 | > 300 | NT (rotarod), minimum dose neurotoxic in half or more animals tested, 0.5 h (mice (rotarod test); male, CF#1, mouse, in vivo): 300 mg/kg
Cl.O=C(CN1CCN(c2ccccc2F)CC1)Nc1cccc(Cl)c1 [Compound 7, N-(3-chlorophenyl)-2-[4-(2-fluorophenyl)piperazin-1-yl]acetamide monohydrochloride] | > 300 | > 300 | > 300 | > 300 | –
Cl.O=C(CN1CCN(c2ncccn2)CC1)Nc1cccc(Cl)c1 [Compound 10, N-(3-chlorophenyl)-2-(4-pyrimidin-2-ylpiperazin-1-yl)acetamide monohydrochloride] | > 300 | > 300 | > 300 | > 300 | –
Cl.O=C(CN1CCN(c2ccccc2Cl)CC1)Nc1cccc(C(F)(F)F)c1 [Compound 15, 2-[4-(2-Chlorophenyl)piperazin-1-yl]-N-[3-(trifluoromethyl)phenyl]acetamide monohydrochloride] | > 300 | > 300 | > 300 | > 300 | –
Cl.Cl.O=C(CN1CCN(Cc2ccccc2)CC1)Nc1cccc(Cl)c1 [Compound 11, 2-(4-Benzylpiperazin-1-yl)-N-(3-chlorophenyl)acetamide dihydrochloride] | > 300 | > 300 | > 300 | > 300 | NT (rotarod), minimum dose neurotoxic in half or more animals tested, 0.5 h (mice (rotarod test); male, CF#1, mouse, in vivo): 300 mg/kg; dose showing neurotoxicity in the rotarod test (NT) (mice (rotarod test); male, CF#1, mouse, in vivo): 300 mg/kg
O=C(CN1CCN(c2ccc(Cl)cc2)CC1)Nc1cccc(C(F)(F)F)c1 [Compound 16, 2-[4-(4-Chlorophenyl)piperazin-1-yl]-N-[3-(trifluoromethyl)phenyl]acetamide] | > 300 | 100 | > 300 | > 300 | –
Cl.O=C(CN1CCN(c2ccc(F)cc2)CC1)Nc1cccc(Cl)c1 [Compound 8, N-(3-chlorophenyl)-2-[4-(4-fluorophenyl)piperazin-1-yl]acetamide monohydrochloride] | > 300 | > 300 | > 300 | > 300 | –
